The source of these data is US9012412B2, “Dual SGLT1/SGLT2 inhibitors” (Janssen Pharmaceutica NV, priority 2013, dated 2015).

One assay has as its target T1, human SGLT2 (Homo sapiens, UniProt P31639).
T1 construct: expressed in transfected cells
T1 sequence (P31639 1-672): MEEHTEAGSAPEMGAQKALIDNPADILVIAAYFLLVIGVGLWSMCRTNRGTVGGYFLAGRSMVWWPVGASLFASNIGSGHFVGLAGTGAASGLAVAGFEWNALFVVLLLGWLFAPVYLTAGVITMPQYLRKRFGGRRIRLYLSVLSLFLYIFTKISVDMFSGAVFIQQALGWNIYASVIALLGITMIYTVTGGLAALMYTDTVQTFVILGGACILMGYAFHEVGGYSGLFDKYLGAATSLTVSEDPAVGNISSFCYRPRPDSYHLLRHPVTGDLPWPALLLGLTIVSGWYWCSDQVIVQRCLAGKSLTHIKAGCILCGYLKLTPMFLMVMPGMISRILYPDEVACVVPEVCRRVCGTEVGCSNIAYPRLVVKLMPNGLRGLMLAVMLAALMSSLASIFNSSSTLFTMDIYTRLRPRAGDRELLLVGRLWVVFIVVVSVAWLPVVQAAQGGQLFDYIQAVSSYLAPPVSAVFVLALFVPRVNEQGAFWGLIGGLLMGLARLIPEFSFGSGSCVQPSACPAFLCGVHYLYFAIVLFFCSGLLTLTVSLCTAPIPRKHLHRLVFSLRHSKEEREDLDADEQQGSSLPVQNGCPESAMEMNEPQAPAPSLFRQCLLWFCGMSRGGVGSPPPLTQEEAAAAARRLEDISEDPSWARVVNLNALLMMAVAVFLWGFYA
Nature of the assay: Sodium-dependent 14C-methyl-α-D-glucopyranoside uptake in CHO-K1 cells stably expressing human SGLT2. The assay is classed as cell-based. The protocol:
(§1) SGLT1 and SGLT2 were cloned in form of cDNA from human small intestine (Genbank M24847), and from human kidney (Genbank M95549), respectively. Subsequently, each full cDNA was subcloned into pcDNA with each construct's integrity verified through follow-on sequencing. To generate CHO-K1 cells that stably express human SGLT1 or human SGLT2 CHO-K1 cells were transfected using DMRIE-C reagent (Life Technologies, Gaithersburg, Md.). Transfected cells were then selected in the presence of 500 μg/ml of the antibiotic G418 (Gibco-BRL, Grand Island, N.Y.). Individual clones were then characterized using the following cell-based assay for sodium-dependent glucose transport.
(§2) First, cell lines stably expressing human SGLT1 or SGLT2 were seeded at a density of 65,000 cells per well per 200 μl cell culture medium with 10 mM of NaButyrate (Aldrich Catalog No. 30341-0) in a 96-well flat bottom plate (COSTAR, Catalog No. 3903). For human SGLT1 or SGLT2 expressing CHO-K1 cells the culture medium comprised Ham's F-12 (Invitrogen Catalog No. 31765), Fetal Bovine Serum (Invitrogen Catalog No. 16000), G418 (Geneticin, Cellgro Catalog No. 30234-CI), Phlorizidin (Sigma Catalog No. P3449), DPBS (Cellgro Catalog No. 21030-CV), ^14C-methyl-α-D-glucopyranoside (Amersham Catalog No. CFB 76), and Methyl-α-D-glucopyranoside (Sigma Catalog No. M-9376).
(§3) The cells were allowed to incubate for 24 hours. Subsequently, the medium was aspirated from the plates and the cells were washed one time with 150 μl assay buffer and incubate 15 min with another 150 μl assay buffer which comprised 50 mM HEPES pH 7.4, 20 mM Tris Base, 5 mM KCl, 1 mM MgCl2, 1 mM CaCl2, and 137 mM NaCl. After removing the wash buffer, 40 μl assay buffer and 10 μl compound solution was added to each well, which was again allowed to incubate for 10 min.
(§4) Following the 10 min incubation, 10 μl of serial diluted Methyl-α-D-glucopyranoside (Sigma Catalog No. M-9376) containing 0.07 μCi ^14C-methyl-α-D-glucopyranoside (Amersham Catalog No. CFB 76) was added to the appropriate well and allowed to incubate for another 2 hours. ^14C-methyl-α-D-glucopyranoside (Sigma Catalog No. M-9376, St. Louis, Mo.) is a non-metabolizable glucose analog specific for sodium-dependent glucose transporters as previously described by H. Peng and J. E. Lever in “Post-transcriptional regulation of Na+/glucose cotransporter (SGLT1) gene expression in LLC-PK1 cells,” J. Biol. Chem. 270, 20536-42 (1995).
(§5) Next, the plates were twice washed with 150 μl of ice-cold DPBS (Cellgro Catalog No. 21030) that was then completely removed from the plates before adding 50 μl of MicroScint™-20 (Packard Catalog No. 6013621) to each well for a 20 min or longer incubation time.
(§6) Sodium-dependent ^14C-methyl-α-D-glucopyranoside uptake was quantified by measuring radioactivity. Plates were counted in a TopCount (Packard, Meriden, Conn.). Results are reported as the %-inhibition or IC50 value from a representative experiment. Variability for the functional assay was typically within 20%.

The target of the next assay is T2, human SGLT1 (Homo sapiens, UniProt P13866).
T2 construct: expressed in transfected cells
T2 sequence (P13866 1-664): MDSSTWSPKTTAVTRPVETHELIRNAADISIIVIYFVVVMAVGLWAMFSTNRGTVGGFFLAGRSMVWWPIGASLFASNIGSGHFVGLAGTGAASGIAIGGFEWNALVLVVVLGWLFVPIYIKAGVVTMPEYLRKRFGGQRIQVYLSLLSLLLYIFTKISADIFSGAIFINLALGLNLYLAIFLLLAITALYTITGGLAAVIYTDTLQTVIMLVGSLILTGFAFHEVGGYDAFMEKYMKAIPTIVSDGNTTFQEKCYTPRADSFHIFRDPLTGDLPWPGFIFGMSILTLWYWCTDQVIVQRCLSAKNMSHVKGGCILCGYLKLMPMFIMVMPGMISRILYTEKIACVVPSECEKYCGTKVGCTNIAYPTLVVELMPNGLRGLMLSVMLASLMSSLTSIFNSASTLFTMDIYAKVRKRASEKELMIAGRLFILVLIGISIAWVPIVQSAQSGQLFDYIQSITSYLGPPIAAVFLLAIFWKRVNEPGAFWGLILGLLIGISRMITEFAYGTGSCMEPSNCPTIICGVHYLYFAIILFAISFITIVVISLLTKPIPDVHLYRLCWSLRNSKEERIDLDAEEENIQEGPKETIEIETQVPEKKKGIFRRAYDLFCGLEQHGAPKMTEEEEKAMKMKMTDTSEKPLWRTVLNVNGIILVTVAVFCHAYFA
Nature of the assay: Sodium-dependent 14C-methyl-α-D-glucopyranoside uptake in CHO-K1 cells stably expressing human SGLT1. The assay is classed as cell-based. The protocol:
as §1, §2, §3, §4, §5, §6

Setting [1] is: 14C-methyl-α-D-glucopyranoside uptake.

Broadly, the IC50 is the concentration needed to halve the response being measured. As a reminder, the inhibition is the drop in the measured response relative to a control, in per cent. Low values mean a weak effect, high ones a strong effect.

For the compound `OC[C@@H]1C[C@H](O)[C@@H](O)[C@H](c2cc(Cc3cc4ccccc4s3)c(F)cc2O)O1` [Cpd 4, (2S,3R,4S,6S)-2-(5-(benzo[b]thiophen-2-ylmethyl)-4-fluoro-2-hydroxyphenyl)-6-(hydroxymethyl)-tetrahydro-2H-pyran-3,4-diol], the IC50 is 128 nM against human SGLT2 (setting [1]) and 893 nM on human SGLT1 (setting [1]).

At human SGLT2 (compound at 0.3 μM), `Cc1cc(O)c([C@@H]2O[C@H](CO)C[C@H](O)[C@H]2O)cc1C(C)(C)c1cc2ccccc2s1` [Cpd 15, (2S,3R,4S,6S)-2-(5-(2-(benzo[b]thiophen-2-yl)propan-2-yl)-2-hydroxy-4-methylphenyl)-6-(hydroxymethyl)tetrahydro-2H-pyran-3,4-diol] showed an inhibition at 0.3 µM of 25%. The same compound yielded an inhibition at 3 µM against human SGLT1 (compound at 3 μM) of 52%.
